Assay results from patent EP4467141A1, “PYRAZOLO-QUINOLINES AS SELECTIVE INHIBITORS OF GENOTOXIC STRESS-INDUCED IKK/NF- KB PATHWAYS FOR CANCER THERAPY” (Max-Delbrück-Centrum für Molekulare Medizin in der …, priority 2023, dated 2024).

Key:
[1] = test system: U2-OS cells; assay: Western blot of apoptosis and DNA damage markers (cleaved caspase-3, PARP1 cleavage, p53, γH2AX) in U2-OS cells; format: cell-based; conditions: for cleaved caspase-3, etoposide co-treatment: 10 µM plus etoposide 50 µM; for cleaved caspase-3, etoposide co-treatment / cleaved caspase-3, compound alone: 24 hours; for cleavage of PARP1, as apoptotic marker / cleaved caspase-3, compound alone: 10 µM; for cleavage of PARP1, as apoptotic marker: 8 hours after 10 Gy irradiation
Protocol: Fig.4: MW01 and MW05 reduce cell viability and increase p53-mediated apoptosis upon etoposide co-treatment. (A) Representative light microscopy images of U2-OS cells following treatment with DMSO, MW01 (10 µM), MW05 (10 µM), or etoposide (50 µM), or co-treatment with MW01 (10 µM) and etoposide (50 µM), or MW05 (10 µM) and etoposide (50 µM) at 24 (left) and 48 hours (right). (B) Quantification of cell viability using CellTiter-Fluor Cell Viability Assay at 6, 24, and 48 hours. Treatment with 0.1% SDS 30 minutes prior to assay was used as positive cell death control. (ns: not significant; *, **, ***: p<0.05, p<0.01, p<0.001). (C) U2-OS cells were treated with DMSO, MW01 (10 µM), MW 05 (10 µM), or etoposide (50 µM), or co-treated with MW01 (10 µM) and etoposide (50 µM), or MW05 (10 µM) and etoposide (50 µM), as indicated. After 24 hours, whole cell lysates were prepared and analyzed by Western blotting for p65 phosphorylation (S536), caspase-3 and cleaved caspase-3 (left panel) and for p53 and γH2AX) (right panel). Vinculin was used as loading control.
Fig.7: (A) Immunoprecipitation of IKKγ from HEK293 lysates pre-treated for 1 hour with DMSO, MW01 or MW05, then irradiated (IR, 20 Gy) and lysed. (B) Western blot analysis of MEF cells pre-treated with DMSO, MW01, MW05 or ATM inhibitor KU55933 and irradiated (IR, 20 Gy). Lysates were subjected to SDS-PAGE/WB. The specific IKKγ S85 band (lower band) was identified by induction following irradiation and by sensitivity to ATMi and λ- phosphatase (λ-PP) treatment. (C) Western blot analysis of U2os cells pre-treated for 1 hour with the indicated substances, irradiated (IR, 20 Gy) and whole cell lysates probed for poly(ADP)-ribose. (D) Western blot analysis of cytoplasmic and nuclear fractions from U2-OS cells for p-ATM (S 1981), after 1 hour pre-treatment with DMSO, MW01 (10 µM), or MW05 (10 µM) and 45 min following irradiation (IR, 20 Gy). PARP1 and LDHA are used as loading controls for nuclear and cytoplasmic fractions respectively. (E) mRNA expression analysis of CLK4 (top), 48 hours after transfection with siNC or siCLK4. mRNA expression analysis of NFKBIA (bottom), 48 hours after transfection with siNC or siCLK4. Values normalized to unstimulated siNC expressing cells. Statistical comparison was made between experimental conditions and paired siNC control. ns: not significant; **, ***, ****: p<0.01, p<0.001, p<0.0001. (F) Western blot analysis of p65 phosphorylation (S536) and CLK4 expression after transfection with siNC or siCLK4 in unstimulated, after 90 min irradiation (IR, 20 Gy), or after 20 min TNFα (10 ng/mL) conditions in U2-OS cells. Vinculin is used as loading control. Note that CLK4 and p-p65 were blotted on separate membranes, with respective vinculin blots underneath. (G) MW01 and MW05 are inhibitors of DNA damage-induced p65 nuclear translocation. U2-OS cells were pre-treated with DMSO, MW01 or MW05. Etoposide was added and after 2 hours cells were fixed and nuclei stained with DAPI. P65 and γH2AX were stained by immunofluorescence and images taken at a confocal Zeiss 710 LSM microscope with a 40x oil objective. (H) Western blot analysis of U2-OS cells 8 hours after 10 Gy irradiation following 1 hour pre-treatment with 10 µM DMSO, MW01, or MW05. Tubulin was used loading control. (I) mRNA expression analysis of BIRC3 in U2-OS cells 8 hours after 10 Gy irradiation following 1 hour pre-treatment with 10 µM DMSO, MW01, or MW05 and. Values were normalized to DMSO-treated unstimulated cells.
Cells were collected by scraping and lysed in Baeuerle lysis buffer supplemented with Protease (Thermo Fisher Scientific, 78429) and Phosphatase (Thermo Fisher Scientific, 78420) inhibitors after the appropriate treatment and time point. […]

[2] = test system: NF-κB subunit p65 phosphorylation (S536); assay: Western blot of p65 phosphorylation (S536) after DNA damage (irradiation or etoposide) in U2-OS cells; format: cell-based; conditions: 10 µM plus etoposide 50 µM, 24 hours

Compound | cleaved caspase-3, etoposide co-treatment [1] | cleavage of PARP1, as apoptotic marker [1] | cleaved caspase-3, compound alone [1] | etoposide-stimulated p65 phosphorylation [2]
COc1ccc2c(c1OC)c(=O)n1c3ccc(O)cc3c3ccnc2c31 [MW01, 5-Hydroxy-10,11-dimethoxy-9H-benzo[c]indolo[3,2,1-ij][1,5]naphthyridin-9-one] | increased | potentiated | did not observe an increase | abrogated
COc1ccc2cc3c(N)nn(C(=O)c4cccc(N(C)C)c4)c3nc2c1 [MW05, (3-Amino-7-methoxypyrazolo[3,4-b]quinolin-1-yl)-[3-(dimethylamino)phenyl]methanone] | increased | potentiated | did not observe an increase | abrogated
